PubChem BioAssay AID1963426 (Molecular Pharmacology Branch, DTP, NCI, 2024)

System: 186277-243-T-J2-PDC complex spheroid growth, % test/control
Experiment: Anticancer human tumor 186277-243-T-J2-PDC patient-derived colon adenocarcinoma cell line growth inhibition [Asc]
Settings: for IC50: curve of first compound; for viability, T/C: stronger effect = lower value; active = viability on the fitted dose curve at most 10% of control; inactive = the rest
Method in brief: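 Complex solid-tumor spheroids incorporating human endothelial and mesenchymal stem cells received single agents or combinations over half-log dilution ranges anchored to clinical Cmax.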

[1] = second compound 0.1 µM, first compound 0.00316 µM
[2] = second compound 0.1 µM, first compound 0.01 µM
[3] = second compound 0.1 µM, first compound 0.0316 µM
[4] = second compound 0.1 µM, first compound 0.1 µM
[5] = second compound 0.1 µM, first compound 0.316 µM
[6] = second compound 0.1 µM, first compound 1 µM
[7] = second compound 0.316 µM, first compound 0.00316 µM
[8] = second compound 0.316 µM, first compound 0.01 µM
[9] = second compound 0.316 µM, first compound 0.0316 µM
[10] = second compound 0.316 µM, first compound 0.1 µM
[11] = second compound 0.316 µM, first compound 0.316 µM
[12] = second compound 0.316 µM, first compound 1 µM
[13] = second compound 1 µM, first compound 0.00316 µM
[14] = second compound 1 µM, first compound 0.01 µM
[15] = second compound 1 µM, first compound 0.0316 µM
[16] = second compound 1 µM, first compound 0.1 µM
[17] = second compound 1 µM, first compound 0.316 µM
[18] = second compound 1 µM, first compound 1 µM
[19] = second compound 3.16 µM, first compound 0.00316 µM
[20] = second compound 3.16 µM, first compound 0.01 µM
[21] = second compound 3.16 µM, first compound 0.0316 µM
[22] = second compound 3.16 µM, first compound 0.1 µM
[23] = second compound 3.16 µM, first compound 0.316 µM
[24] = second compound 3.16 µM, first compound 1 µM
[25] = second compound 10 µM, first compound 0.00316 µM
[26] = second compound 10 µM, first compound 0.01 µM
[27] = second compound 10 µM, first compound 0.0316 µM
[28] = second compound 10 µM, first compound 0.1 µM
[29] = second compound 10 µM, first compound 0.316 µM
[30] = second compound 10 µM, first compound 1 µM
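Note: spheroids exposed to agents for 7 days.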
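Throughout, for viability, T/C: 100% = DMSO vehicle control wells.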

O=C(c1ccc(F)c(F)c1Nc1ccc(I)cc1F)N1CC(O)([C@@H]2CCCCN2)C1 + CCN1C(C(=O)NC23CCC(C(=O)O)(CC2)CC3)C(c2cccc(Cl)c2F)C2(C(=O)Nc3cc(Cl)ccc32)C12CCCCC2
< 0.00316 µM: IC50 (second compound 3 µM)
0.0541 µM: IC50 (second compound 0.0949 µM)
inactive: viability, T/C (second compound 0.03 µM, first compound 0.00316 µM) 119% | viability, T/C (second compound 0.03 µM, first compound 0.01 µM) 105% | viability, T/C (second compound 0.03 µM, first compound 0.0316 µM) 96.8% | viability, T/C (second compound 0.03 µM, first compound 0.1 µM) 32.2% | viability, T/C (second compound 0.0949 µM, first compound 0.00316 µM) 90% | viability, T/C (second compound 0.0949 µM, first compound 0.01 µM) 96% | viability, T/C (second compound 0.0949 µM, first compound 0.0316 µM) 75.8% | viability, T/C (second compound 0.0949 µM, first compound 0.1 µM) 20% | viability, T/C (second compound 0.3 µM, first compound 0.00316 µM) 66.6% | viability, T/C (second compound 0.3 µM, first compound 0.01 µM) 61.9% | viability, T/C (second compound 0.3 µM, first compound 0.0316 µM) 22.6% | viability, T/C (second compound 0.949 µM, first compound 0.00316 µM) 52.2% | viability, T/C (second compound 0.949 µM, first compound 0.01 µM) 45% | viability, T/C (second compound 0.949 µM, first compound 0.0316 µM) 19% | viability, T/C (second compound 3 µM, first compound 0.00316 µM) 31.5% | viability, T/C (second compound 3 µM, first compound 0.01 µM) 26.7% | viability, T/C (second compound 3 µM, first compound 0.0316 µM) 11.9%
active: viability, T/C (second compound 0.03 µM, first compound 0.316 µM) 6.54% | viability, T/C (second compound 0.03 µM, first compound 1 µM) 3.48% | viability, T/C (second compound 0.0949 µM, first compound 0.316 µM) 3.92% | viability, T/C (second compound 0.0949 µM, first compound 1 µM) 1.51% | viability, T/C (second compound 0.3 µM, first compound 0.1 µM) 5.9% | viability, T/C (second compound 0.3 µM, first compound 0.316 µM) 1.93% | viability, T/C (second compound 0.3 µM, first compound 1 µM) 1.43% | viability, T/C (second compound 0.949 µM, first compound 0.1 µM) 5.17% | viability, T/C (second compound 0.949 µM, first compound 0.316 µM) 4.44% | viability, T/C (second compound 0.949 µM, first compound 1 µM) 2.55% | viability, T/C (second compound 3 µM, first compound 0.1 µM) 4.93% | viability, T/C (second compound 3 µM, first compound 0.316 µM) 3.83% | viability, T/C (second compound 3 µM, first compound 1 µM) 3.31%
0.0141 µM: IC50 (second compound 0.3 µM)
0.0728 µM: IC50 (second compound 0.03 µM)
0.00449 µM: IC50 (second compound 0.949 µM)

CNC(C)C(=O)NC1CN(S(=O)(=O)c2cccc(S(=O)(=O)N3CCC4CCC(C(=O)NC(c5ccccc5)c5ccccc5)N4C(=O)C(NC(=O)C(C)NC)C3)c2)CCC2CCC(C(=O)NC(c3ccccc3)c3ccccc3)N2C1=O (stereo not given) + Cc1c(S(C)(=O)=O)c(-c2cc(F)cc(N3CCN(c4ccc(NS(=O)(=O)c5ccc(NC(CCN6CCC(C(=O)OCCCP(=O)(O)O)CC6)CSc6ccccc6)c(S(=O)(=O)C(F)(F)F)c5)cc4)CC3)c2)c(-c2ccc(Cl)cc2)n1C(C)C
> 1 µM: IC50 (second compound 0.1 µM) | IC50 (second compound 0.316 µM) | IC50 (second compound 1 µM) | IC50 (second compound 3.16 µM) | IC50 (second compound 10 µM)
inactive: viability, T/C [1] 99.7% | viability, T/C [2] 108% | viability, T/C [3] 111% | viability, T/C [4] 106% | viability, T/C [5] 101% | viability, T/C [6] 110% | viability, T/C [7] 102% | viability, T/C [8] 104% | viability, T/C [9] 102% | viability, T/C [10] 105% | viability, T/C [11] 108% | viability, T/C [12] 110% | viability, T/C [13] 123% | viability, T/C [14] 114% | viability, T/C [15] 101% | viability, T/C [16] 110% | viability, T/C [17] 110% | viability, T/C [18] 99.5% | viability, T/C [19] 105% | viability, T/C [20] 109% | viability, T/C [21] 93.6% | viability, T/C [22] 109% | viability, T/C [23] 110% | viability, T/C [24] 104% | viability, T/C [25] 93.6% | viability, T/C [26] 103% | viability, T/C [27] 102% | viability, T/C [28] 109% | viability, T/C [29] 101% | viability, T/C [30] 107%

O=C(c1ccc(F)c(F)c1Nc1ccc(I)cc1F)N1CC(O)([C@@H]2CCCCN2)C1 + Cc1c(S(C)(=O)=O)c(-c2cc(F)cc(N3CCN(c4ccc(NS(=O)(=O)c5ccc(NC(CCN6CCC(C(=O)OCCCP(=O)(O)O)CC6)CSc6ccccc6)c(S(=O)(=O)C(F)(F)F)c5)cc4)CC3)c2)c(-c2ccc(Cl)cc2)n1C(C)C
0.0659 µM: IC50 (second compound 1 µM)
active: viability, T/C [5] 9.22% | viability, T/C [6] 4.73% | viability, T/C [11] 5.96% | viability, T/C [12] 2.79% | viability, T/C [17] 2.79% | viability, T/C [18] 1.09% | viability, T/C [23] 1.13% | viability, T/C [24] 0.48% | viability, T/C [28] 7.98% | viability, T/C [29] 4.2% | viability, T/C [30] 0.52%
0.0578 µM: IC50 (second compound 3.16 µM)
0.0934 µM: IC50 (second compound 0.1 µM)
0.0733 µM: IC50 (second compound 0.316 µM)
inactive: viability, T/C [1] 95.5% | viability, T/C [2] 92.4% | viability, T/C [3] 107% | viability, T/C [4] 47% | viability, T/C [7] 101% | viability, T/C [8] 97.8% | viability, T/C [9] 88.8% | viability, T/C [10] 35.7% | viability, T/C [13] 102% | viability, T/C [14] 99.2% | viability, T/C [15] 103% | viability, T/C [16] 20.7% | viability, T/C [19] 93.5% | viability, T/C [20] 93.1% | viability, T/C [21] 94.7% | viability, T/C [22] 10.2% | viability, T/C [25] 88.1% | viability, T/C [26] 93.5% | viability, T/C [27] 82%
0.052 µM: IC50 (second compound 10 µM)

C=CC(=O)N1CCN(c2nc(=O)n(-c3c(C)ccnc3C(C)C)c3nc(-c4c(O)cccc4F)c(F)cc23)C(C)C1 (stereo not given) + CNC(C)C(=O)NC1CN(S(=O)(=O)c2cccc(S(=O)(=O)N3CCC4CCC(C(=O)NC(c5ccccc5)c5ccccc5)N4C(=O)C(NC(=O)C(C)NC)C3)c2)CCC2CCC(C(=O)NC(c3ccccc3)c3ccccc3)N2C1=O
> 10 µM: IC50 (second compound 0.01 µM) | IC50 (second compound 0.0316 µM) | IC50 (second compound 0.1 µM) | IC50 (second compound 0.316 µM) | IC50 (second compound 1 µM)
inactive: viability, T/C (second compound 0.01 µM, first compound 0.0316 µM) 102% | viability, T/C (second compound 0.01 µM, first compound 0.1 µM) 114% | viability, T/C (second compound 0.01 µM, first compound 0.316 µM) 117% | viability, T/C (second compound 0.01 µM, first compound 1 µM) 100% | viability, T/C (second compound 0.01 µM, first compound 3.16 µM) 112% | viability, T/C (second compound 0.01 µM, first compound 10 µM) 104% | viability, T/C (second compound 0.0316 µM, first compound 0.0316 µM) 118% | viability, T/C (second compound 0.0316 µM, first compound 0.1 µM) 104% | viability, T/C (second compound 0.0316 µM, first compound 0.316 µM) 122% | viability, T/C (second compound 0.0316 µM, first compound 1 µM) 116% | viability, T/C (second compound 0.0316 µM, first compound 3.16 µM) 100% | viability, T/C (second compound 0.0316 µM, first compound 10 µM) 108% | viability, T/C [3] 124% | viability, T/C [4] 108% | viability, T/C [5] 124% | viability, T/C [6] 114% | viability, T/C (second compound 0.1 µM, first compound 3.16 µM) 122% | viability, T/C (second compound 0.1 µM, first compound 10 µM) 113% | viability, T/C [9] 124% | viability, T/C [10] 118% | viability, T/C [11] 120% | viability, T/C [12] 130% | viability, T/C (second compound 0.316 µM, first compound 3.16 µM) 112% | viability, T/C (second compound 0.316 µM, first compound 10 µM) 110% | viability, T/C [15] 112% | viability, T/C [16] 124% | viability, T/C [17] 109% | viability, T/C [18] 106% | viability, T/C (second compound 1 µM, first compound 3.16 µM) 127% | viability, T/C (second compound 1 µM, first compound 10 µM) 118%
